Measured values reported in patent EP0036572A1, “Substituted alkylthioacylamino acids, processes for their preparation and pharmaceutical compositions” (C.H. BOEHRINGER SOHN, priority 1980, dated 1981).

Legend:
[1] = tested on: durch Bradykinin erzeugte Blutdrucksenkung; details: Ratten; 3,0 µ g/kg Bradykinin i.v.; test substance 1,38juMol/kg i.v.
[2] = tested on: genetischen Hochdruckratte; details: genetische Hochdruckratte; 30 mg/kg p.o.

C[C@H](CSC(C[N+](=O)[O-])c1ccccc1)C(=O)N1CCC[C@H]1C(=O)O (stereo partly drawn) [Beispiel 1, 1-[3-(1-Phenyl-2-nitro-äthylthio)-2-D-methylpropanoyl]-L-prolin]
durch Bradykinin verursachte Blutdrucksenkung verstärkt um [1]: 142%
Blutdrucksenkung [2]: 19%
